Measured values from US9914730B2, “Azaquinazoline inhibitors of Atypical protein Kinase C” (Ignyta, Inc., priority 2012, dated 2018).

target: T1, full-length human PKCι (Homo sapiens, UniProt P41743); assay: PKCι IC50 IMAP assay, full-length PKCι at 150 μM ATP; assay type: biochemical; conditions: read-out: IC50 in IMAP assay against full length PKCi at 150 μM ATP
T1 construct: Recombinant, full-length human PKCι expressed in Sf21 insect cells is also commercially available; purchased; host or cells: Sf21 insect cells
T1 sequence (P41743 1-596): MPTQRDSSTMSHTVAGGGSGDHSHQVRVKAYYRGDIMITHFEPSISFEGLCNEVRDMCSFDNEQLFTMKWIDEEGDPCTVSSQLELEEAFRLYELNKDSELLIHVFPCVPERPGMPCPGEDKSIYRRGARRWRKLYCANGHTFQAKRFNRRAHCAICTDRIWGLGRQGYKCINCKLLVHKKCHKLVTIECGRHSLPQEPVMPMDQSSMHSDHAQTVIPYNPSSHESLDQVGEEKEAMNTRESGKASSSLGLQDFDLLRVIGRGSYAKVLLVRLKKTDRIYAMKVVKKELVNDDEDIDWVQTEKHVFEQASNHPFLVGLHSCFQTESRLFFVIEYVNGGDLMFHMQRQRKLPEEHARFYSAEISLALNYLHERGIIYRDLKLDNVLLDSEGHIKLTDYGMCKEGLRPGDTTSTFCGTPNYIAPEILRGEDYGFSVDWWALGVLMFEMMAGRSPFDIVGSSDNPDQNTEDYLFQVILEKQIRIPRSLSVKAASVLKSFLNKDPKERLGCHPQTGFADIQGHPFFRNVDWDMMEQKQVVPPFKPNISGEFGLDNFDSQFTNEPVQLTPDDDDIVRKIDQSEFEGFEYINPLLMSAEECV
How it was run: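 Phosphorylation of a 5FAM-tagged PKCε pseudopeptide-derived substrate (100 nM) by full-length recombinant human PKCι was monitored by IMAP fluorescence polarisation. ATP was held at 150 μM, five times its apparent KM, with 60 min room-temperature incubation.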

IC50 | Compound
< 100 nM | CN1CCN(c2cccc(Nc3cc(-c4nc(N5CC[C@H](O)C5)c5c(C6CC6)cncc5n4)ccn3)c2)CC1 [Example 727, (S)-1-(5-Cyclopropyl-2-{2-[3-(4-methyl-piperazin-1-yl)-phenylamino]-pyridin-4-yl}-pyrido[3,4-d]pyrimidin-4-yl)-pyrrolidin-3-ol]
100 to 1000 nM | NC(=O)Cc1cccc(Nc2cc(-c3nc(N[C@@H]4CCNC4)c4ccncc4n3)ccn2)c1 [Example 316, 2-(3-{4-[4-((R)-Pyrrolidin-3-ylamino)-pyrido[3,4-d]pyrimidin-2-yl]-pyridin-2-ylamino}-phenyl)-acetamide]
< 100 nM | Fc1cccc(F)c1-c1cc2c(-c3nc(N4CCNCC4)c4c(C5CC5)cncc4n3)ccnc2[nH]1 [Example 2145, 5-Cyclopropyl-2-[2-(2,6-difluoro-phenyl)-1H-pyrroIo[2,3-b]pyridin-4-yl]-4-piperazin-1-yl-pyrido[3,4-d]pyrimidine]
1000 to 10000 nM | FC(F)(F)c1cc2c(-c3nc(N4CCNC(C(F)(F)F)C4)c4c(C5CC5)cncc4n3)ccnc2[nH]1 (centres unmarked) [Example 1236, 5-Cyclopropyl-4-(3-trifluoromethyl-piperazin-1-yl)-2-(2-trifluoromethyl-1H-pyrrolo[2,3-b]pyridin-4-yl)-pyrido[3,4-d]pyrimidine]
< 100 nM | CC(C)(O)C#Cc1nccc2c(NCC(N)Cc3ccccc3)nc(-c3ccncc3)nc12 (stereo in doubt) [Example 131, 4-(4-{[(2S)-2-amino-3-phenylpropyl]amino}-2-(pyridin-4-yl)pyrido[3,4-d]pyrimidin-8-yl)-2-methylbut-3-yn-2-ol]
< 100 nM | CN1CCN(c2cccc(Nc3cc(-c4nc(N5CC[C@H](O)[C@H](O)C5)c5c(C6CC6)cncc5n4)ccn3)c2)CC1 (racemic) [Example 602, (+/−)-(cis)-1-(5-Cyclopropyl-2-{2-[3-(4-methyl-piperazin-1-yl)-phenylamino]-pyridin-4-yl}-pyrido[3,4-d]pyrimidin-4-yl)-piperidine-3,4-diol]
10000 to 40000 nM | Fc1cnccc1-c1nc(N2CCNC(C(F)(F)F)C2)c2ccncc2n1 (centres unmarked) [Example 66, 1-[2-(3-fluoropyridin-4-yl)pyrido[3,4-d]-pyrimidin-4-yl]-3-(trifluoromethyl)-piperazine]
< 100 nM | Fc1cccc(F)c1Nc1cc(-c2nc(NC3CCCNCC3)c3c(C4CC4)cncc3n2)ccn1 (centres unmarked) [Example 2058, Azepan-4-yl-{5-cyclopropyl-2-[2-(2,6-difluoro-phenylamino)-pyridin-4-yl]-pyrido[3,4-d]pyrimidin-4-yl}-amine]
< 100 nM | FC(F)(F)c1nc2cc(Nc3cc(-c4nc(N5CCNCC5)c5c(C6CC6)cncc5n4)ccn3)ccc2o1 [Example 2133, [4-(5-Cyclopropyl-4-piperazin-1-yl-pyrido[3,4-d]pyrimidin-2-yl)-pyridin-2-yl]-(2-trifluoromethyl-benzooxazol-5-yl)-amine]
< 100 nM | FC(F)(F)c1ccc(Nc2cc(-c3nc(N4CCNCC4)c4c(C5CC5)cncc4n3)ccn2)cc1 [Example 595, [4-(5-Cyclopropyl-4-piperazin-1-yl-pyrido[3,4-d]pyrimidin-2-yl)-pyridin-2-yl]-(4-trifluoromethyl-phenyl)-amine]
< 100 nM | N[C@H](CNc1nc(-c2ccncc2)nc2cnc(Cl)cc12)Cc1ccccc1 [Example 12, N-[(2S)-2-amino-3-phenylpropyl]-6-chloro-2-(pyridin-4-yl)pyrido[3,4-d]-pyrimidin-4-amine]
< 100 nM | Fc1cc(F)nc(Nc2cc(-c3nc(N4CCNCC4)c4c(C5CC5)cncc4n3)ccn2)c1 [Example 836, [4-(5-Cyclopropyl-4-piperazin-1-yl-pyrido[3,4-d]pyrimidin-2-yl)-pyridin-2-yl]-(4,6-difluoro-pyridin-2-yl)-amine]
< 100 nM | FC(F)c1cc2c(-c3nc(N4CCNCC4)c4c(C5CCC5)cncc4n3)ccnc2[nH]1 [Example 2114, 5-Cyclobutyl-2-(2-difluoromethyl-1H-pyrrolo[2,3-b]pyridin-4-yl)-4-piperazin-1-yl-pyrido[3,4-d]pyrimidine]
< 100 nM | COc1cncc2nc(-c3ccnc(Nc4ccccc4)c3)nc(N3CCN[C@@H](CO)C3)c12 [Example 434, {(R)-4-[5-Methoxy-2-(2-phenylamino-pyridin-4-yl)-pyrido[3,4-d]pyrimidin-4-yl]-piperazin-2-yl}-methanol]
< 100 nM | COc1ccc(Cl)c(Nc2cc(-c3nc(N4CCNCC4)c4c(C5CC5)cncc4n3)ccn2)c1 [Example 592, (2-Chloro-5-methoxy-phenyl)-[4-(5-cyclopropyl-4-piperazin-1-yl-pyrido[3,4-d]pyrimidin-2-yl)-pyridin-2-yl]-amine]
1000 to 10000 nM | COc1cncc2nc(-c3ccnc(Nc4ccccc4)c3)nc(N3CC(CO)C3)c12 [Example 433, {1-[5-Methoxy-2-(2-phenylamino-pyridin-4-yl)-pyrido[3,4-d]pyrimidin-4-yl]-azetidin-3-yl}-methanol]
< 100 nM | CC(Nc1cc(-c2nc(N3CCNCC3)c3c(C4CC4)cncc3n2)ccn1)C1CCCO1 (centres unmarked) [Example 2066, [4-(5-Cyclopropyl-4-piperazin-1-yl-pyrido[3,4-d]pyrimidin-2-yl)-pyridin-2-yl]-[1-(tetrahydro-furan-2-yl)-ethyl]-amine]
100 to 1000 nM | COc1cncc2nc(-c3ccncc3)nc(N3CCNC(CC#N)C3)c12 (centres unmarked) [Example 58, 2-{4-[5-methoxy-2-(pyridin-4-yl)-pyrido[3,4-d]-pyrimidin-4-yl]-piperazin-2-yl]-acetonitrile]
1000 to 10000 nM | CSc1nccc2c(NC[C@@H](N)Cc3ccccc3)nc(-c3ccncc3)nc12 [Example 130, N-[(2S)-2-amino-3-phenylpropyl]-8-(methylsulfanyl)-2-(pyridin-4-yl)pyrido[3,4-d]pyrimidin-4-amine]
10000 to 40000 nM | c1cc(-c2nc(N3CCOCC3)c3ccncc3n2)ccn1 [Example 21, 4-[2-(pyridin-4-yl)pyrido[3,4-d]-pyrimidin-4-yl]morpholine]
100 to 1000 nM | N[C@H](CNc1nc(-c2ccncc2)nc2c(-c3cccc4ccoc34)nccc12)Cc1ccccc1 [Example 110, N-[(2S)-2-amino-3-phenylpropyl]-8-(1-benzofuran-7-yl)-2-(pyridin-4-yl)pyrido[3,4-d]pyrimidin-4-amine]
100 to 1000 nM | COc1cc(Nc2cc(-c3nc(N4CCNCC4)c4c(OC)cncc4n3)ccn2)cc(OC)c1OC [Example 390, [4-(5-Methoxy-4-piperazin-1-yl-pyrido[3,4-d]pyrimidin-2-yl)-pyridin-2-yl]-(3,4,5-trimethoxy-phenyl)-amine]
< 100 nM | F[C@H]1C[C@@H](Nc2cc(-c3nc(N4CCNCC4)c4c(C5CC5)cncc4n3)ccn2)C1 [Example 703, (+/−)cis-[4-(5-Cyclopropyl-4-piperazin-1-yl-pyrido[3,4-d]pyrimidin-2-yl)-pyridin-2-yl]-(3-fluoro-cyclobutyl)-amine]
< 100 nM | COCC(C)(C)c1cc2c(-c3nc(N4CCNCC4)c4c(C5CCC5)cncc4n3)ccnc2[nH]1 [Example 2109, 5-Cyclobutyl-2-[2-(2-methoxy-1,1-dimethyl-ethyl)-1H-pyrrolo[2,3-b]pyridin-4-yl]-4-piperazin-1-yl-pyrido[3,4-d]pyrimidine]
100 to 1000 nM | COc1cncc2nc(-c3ccnc(Nc4cc(C#N)ccn4)c3)nc(N3CCC(O)CC3)c12 [Example 402, 2-{4-[4-(4-Hydroxy-piperidin-1-yl)-5-methoxy-pyrido[3,4-d]pyrimidin-2-yl]-pyridin-2-ylamino}-isonicotinonitrile]
< 100 nM | CC(C)(C)Nc1cc(-c2nc(N3CCNCC3)c3c(C4CC4)cncc3n2)ccn1 [Example 520, tert-Butyl-[4-(5-cyclopropyl-4-piperazin-1-yl-pyrido[3,4-d]pyrimidin-2-yl)-pyridin-2-yl]-amine]
100 to 1000 nM | COc1cncc2nc(-c3ccnc(Nc4ccccc4)c3)nc(N3CCN[C@@H](CC#N)C3)c12 [Example 232, {(S)-4-[5-Methoxy-2-(2-phenylamino-pyridin-4-yl)-pyrido[3,4-d]pyrimidin-4-yl]-piperazin-2-yl}-acetonitrile]
< 100 nM | CN1CCN(c2cccc(Nc3cc(-c4nc(N5CCC(O)C(O)C5)c5c(C6CC6)cncc5n4)ccn3)c2)CC1 (single isomer, unassigned) [Example 754, (3S,4S or 3R,4R)-1-(5-Cyclopropyl-2-{2-[3-(4-methyl-piperazin-1-yl)-phenylamino]-pyridin-4-yl}-pyrido[3,4-d]pyrimidin-4-yl)-piperidine-3,4-diol]
< 100 nM | FC(F)(F)Oc1ccc(Nc2cc(-c3nc(N4CCNCC4)c4c(C5CC5)cncc4n3)ccn2)cc1 [Example 2162, [4-(5-Cyclopropyl-4-piperazin-1-yl-pyrido[3,4-d]pyrimidin-2-yl)-pyridin-2-yl]-(4-trifluoromethoxy-phenyl)-amine]
